In US20230357159A1, “QUINOLINE COMPOUNDS AS SELECTIVE AND/OR DUAL MODULATORS OF BILE ACID RECEPTORS AND LEUKOTRIENE CYSTEINYL RECEPTORS” (PRECISION BIO-THERAPEUTICS S.R.L., priority 2020, published 2023):
In brackets after ≈: the same amount, converted by molar mass.

Assays:
human GPBAR1 = target: T1, human GPBAR1 (Homo sapiens, UniProt Q8TDU6); experiment: GPBAR1-mediated transactivation, CRE-luciferase reporter in HEK-293T cells; assay type: cell-based; conditions: for GPBAR1 (% of activity compared to 10 µM TLCA): compound at 10 microM, TLCA = 100%
T1 construct: expressed in transfected cells; host or cells: HEK-293T
T1 sequence (Q8TDU6 1-330): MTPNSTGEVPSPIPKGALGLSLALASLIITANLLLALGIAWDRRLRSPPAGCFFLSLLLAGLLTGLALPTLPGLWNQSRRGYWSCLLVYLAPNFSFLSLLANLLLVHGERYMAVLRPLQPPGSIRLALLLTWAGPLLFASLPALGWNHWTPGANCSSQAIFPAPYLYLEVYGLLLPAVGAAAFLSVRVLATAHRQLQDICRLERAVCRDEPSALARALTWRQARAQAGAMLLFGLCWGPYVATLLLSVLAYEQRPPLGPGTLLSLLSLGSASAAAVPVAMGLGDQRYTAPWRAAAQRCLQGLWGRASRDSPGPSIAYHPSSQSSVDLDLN
Description: (§1) In this table, the activities of the compounds are compared with specific reference compounds, namely CDCA for FXR, TLCA for TGR5/GPBAR1, MK571 for CysLT1R. Each compound is tested at a concentration of 10 microM and the activity of the reference compounds is considered to be 100%.
In another experimental set, 24 hours after transfection, the cells were stimulated with 50 µM of the derivatives CHIN in combination with 10 µM of CDCA or TLCA.
(§2) Eighteen hours after stimulation, the cell lysates were used to assess Luciferase and Renilla activity by means of the Dual-Luciferase Reporter assay (E1980, Promega Madison WI). The luminescence was measured using the Glomax 20/20 luminometer (Promega, Madison WI) and the Luciferase activity was normalised with the Renilla activity.

FXR [1] = target: T2, FXR (Homo sapiens, UniProt Q96RI1); experiment: FXR-mediated transactivation, luciferase reporter in HepG2 cells; assay type: cell-based; conditions: dose-response 0.1-75 µM, read-out: FXR ECso
T2 construct: expressed in transfected cells; host or cells: HepG2
T2 sequence (Q96RI1 1-486): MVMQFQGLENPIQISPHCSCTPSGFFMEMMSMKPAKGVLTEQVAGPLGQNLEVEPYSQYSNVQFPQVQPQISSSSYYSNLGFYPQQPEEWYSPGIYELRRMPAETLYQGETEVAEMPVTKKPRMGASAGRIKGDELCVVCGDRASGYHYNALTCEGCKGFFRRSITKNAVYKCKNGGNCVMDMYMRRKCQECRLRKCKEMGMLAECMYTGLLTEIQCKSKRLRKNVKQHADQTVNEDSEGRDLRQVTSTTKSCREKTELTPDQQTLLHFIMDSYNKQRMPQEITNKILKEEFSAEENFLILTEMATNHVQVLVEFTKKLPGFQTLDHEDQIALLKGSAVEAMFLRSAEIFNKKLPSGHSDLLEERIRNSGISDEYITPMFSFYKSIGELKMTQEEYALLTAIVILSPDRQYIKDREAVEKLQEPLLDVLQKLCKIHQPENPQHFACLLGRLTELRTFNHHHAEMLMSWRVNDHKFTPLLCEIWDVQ
T2 sequence (P19793 1-462 partner): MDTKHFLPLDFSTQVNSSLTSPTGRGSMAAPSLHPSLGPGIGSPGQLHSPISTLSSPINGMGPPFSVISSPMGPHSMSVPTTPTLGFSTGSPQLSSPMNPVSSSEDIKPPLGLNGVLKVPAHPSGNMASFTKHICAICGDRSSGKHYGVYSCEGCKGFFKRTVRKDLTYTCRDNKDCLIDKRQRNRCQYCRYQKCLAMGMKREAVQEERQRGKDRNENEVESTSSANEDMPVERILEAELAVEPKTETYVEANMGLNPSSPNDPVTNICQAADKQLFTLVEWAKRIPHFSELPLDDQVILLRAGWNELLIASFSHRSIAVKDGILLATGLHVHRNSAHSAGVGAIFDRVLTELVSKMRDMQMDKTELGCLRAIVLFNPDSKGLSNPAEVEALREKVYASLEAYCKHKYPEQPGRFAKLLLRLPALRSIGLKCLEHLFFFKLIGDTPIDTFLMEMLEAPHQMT

FXR [2] = target: T2, FXR; experiment: as above; assay type: cell-based; conditions: compound at 10 microM, CDCA = 100%
Description: as §1
For FXR-mediated transactivation, the HepG2 cells were transfected with 200 ng of the p(hsp27)-TK-LUC reporter vector containing the FXR response element (IR1) cloned from the heat shock protein 27 (hsp27) promoter, 100 ng of pSG5-FXR, 100 ng of pSG5-RXR and 100 of pGL4.70 (Promega, Madison WI), a vector encoding for the human Renilla gene. […]
as §2

CysLT1R = target: T3, CysLT1R (Homo sapiens, UniProt Q9Y271); experiment: CysLT1R antagonistic activity assay (Ca2+ fluorescence, 0.1 nM LTD4; Eurofins Cerep-Panlabs); assay type: cell-based; conditions: for IC50: antagonism of 0.1 nM LTD4, read-out: CysLTR1 ICso; for inhibition at 10 µM: read-out: CysLTR1 (% of inhibition compared to the compound MK571)
T3 construct: Eurofins Cerep-Panlabs (France)
T3 sequence (Q9Y271 1-337): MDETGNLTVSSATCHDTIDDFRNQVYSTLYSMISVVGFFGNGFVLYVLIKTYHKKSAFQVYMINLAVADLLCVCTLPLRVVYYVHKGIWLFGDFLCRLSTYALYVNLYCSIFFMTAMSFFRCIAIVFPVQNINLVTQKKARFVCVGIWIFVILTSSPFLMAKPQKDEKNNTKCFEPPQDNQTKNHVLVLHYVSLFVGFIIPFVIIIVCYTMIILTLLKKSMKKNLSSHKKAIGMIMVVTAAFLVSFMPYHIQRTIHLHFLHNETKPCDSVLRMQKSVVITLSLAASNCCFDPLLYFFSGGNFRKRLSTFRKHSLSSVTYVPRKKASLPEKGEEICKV
Description: as §1
The antagonistic activity assay was performed by Eurofins Cerep-Panlabs (France). […] The plates are then placed in a microplate reader (CellLux, PerkinElmer), which is used to add the compounds to be tested or the HBSS buffer and then after 5 min with a 0.1 nM LTD4 or HBSS buffer solution (used as control). The change in intensity and fluorescence that varies in proportion to the concentration of free Ca^2+ ion in the cytosol is measured.

wild-type C57/B16 mice = experiment: Acetaminophen (APAP)-induced acute hepatitis in mice; assay type: in vivo; conditions: APAP 500 mg/kg oral gavage; 30 mg/kg orally 45 min after induction; 24 hours
Description: CHIN117 and the effect thereof in reducing acetaminophen-induced liver damage (APAP) are of particular interest. In the experimental set, acute hepatitis was induced in wild-type C57/B16 mice by administration of acetaminophen (APAP) at a concentration of 500 mg/kg via oral gavage. 45 minutes after induction of the disease, CHIN117 was administered at a concentration of 30 mg/kg orally. The mice were sacrificed 24 hours after induction of the disease and blood was taken and analysed for blood count and AST and ALT transaminase values.
The administration of the compound CHIN117 was able to alleviate the APAP-induced liver damage by reducing AST and ALT values by about 10-fold if compared to those recorded in the group of mice treated with APAP alone.

male C57BL/6 mice = experiment: HFD-F diet murine model of NAFLD/NASH; assay type: in vivo; conditions: 30 mg/kg daily from day 7
Description: CHIN117 and the efficacy thereof in a murine model of chronic hepatitis induced by a high-fat diet are of particular interest. This murine model simulates NAFLD, which represents a rapidly growing epidemic in industrialised countries and has a very high cost for the health care system. In this model, the mice (male C57BL/6 mice) were fed a diet rich in lipids and cholesterol (2% cholesterol) and added fructose (3%) in water (HFD-F) for 60 days. CHIN117 was administered daily at a dose of 30 mg/kg starting on day 7. […] After eight weeks, the mice develop insulin resistance, as shown by the OGTT results (FIGS. 4E, F).
In addition, HFD-F indicates an increase in body mass index (BMI) and weight of the white adipose tissue of the epididymis (eWAT), of the brown adipose tissue (BAT) and of the liver (FIGS. 5C-I).

Aqueous solubility = assay type: physicochemical; conditions: pH 7.4
S9 fraction = experiment: Metabolic stability in vitro, S9 fraction; assay type: in vitro ADME; conditions: also phase II enzymes
[3] = compound at 10 microM, MK571 = 100%, 0.1 nM LTD4

| SMILES | GPBAR1 (% of activity compared to 10 µM TLCA) (human GPBAR1) [%] | FXR (% of activity compared to 10 µM CDCA) (FXR [2]) [%] | inhibition at 10 µM (CysLT1R; [3]) [%] | further results |
| --- | --- | --- | --- | --- |
| COC(=O)c1cccc(OCc2ccc3ccccc3n2)c1 [CHIN104, Methyl 3-(Quinolin-2-ylmethoxy)Benzoate] | 23 | 32.46 |  | EC50 (FXR [1]): 9 µM |
| COC(=O)c1cc(O)cc(OCc2ccc3ccccc3n2)c1 [CHIN107, methyl 3-hydroxy-5-(quinolin-2-ylmethoxy)benzoate] | 17.58 | 12.78 | 59 | IC50 (CysLT1R): > 10 µM |
| O=C(O)c1cc(O)cc(OCc2ccc3ccccc3n2)c1 [CHIN108, 3-hydroxy-5-(quinolin-2-ylmethoxy)benzoic Acid] |  | 8.22 |  |  |
| OCc1cc(O)cc(OCc2ccc3ccccc3n2)c1 [CHIN109, 3-(hydroxymethyl) -5-(quinolin-2-ylmethoxy)phenol] |  | 5.92 | 26 |  |
| CC(C)Oc1cccc(OCc2ccc3ccccc3n2)c1 [CHIN111, 2-((3-isopropoxyphenoxy)methyl)quinoline] |  |  | 79 |  |
| CCC(C)COc1cccc(OCc2ccc3ccccc3n2)c1 (stereo not shown) [CHIN114, 2-((3-(2-methylbutoxy)phenoxy)methyl)quinoline] |  |  | 15 |  |
| COC(=O)c1cccc(-c2ccc(OCc3ccc4ccccc4n3)cc2)c1 [CHIN116, Methyl 4′-(quinolin-2-ylmethoxy)-[1,1′-biphenyl]-3-carboxylate] | 56.91 | 11.14 | 21 |  |
| O=C(O)c1cccc(-c2ccc(OCc3ccc4ccccc4n3)cc2)c1 [CHIN117, 4′-(quinolin-2-ylmethoxy)-[1,1′-biphenyl]-3-carboxylic Acid] | 82 | 8.9 | 109 | EC50 (human GPBAR1; dose-response 0.1-75 µM, read-out: GPBAR1 ECso): 4.6 µM; circulating white blood cell (WBC) values (wild-type C57/B16 mice): comparable to those found in untreated mice; reduction of ALT values compared to mice treated with APAP alone (wild-type C57/B16 mice): about 10 fold; reduction of AST values compared to mice treated with APAP alone (wild-type C57/B16 mice): about 10 fold; reduction of weight gain (male C57BL/6 mice; HFD-F diet 60 days): about 3 grams; hepatic steatosis, BMI and eWAT, BAT and liver weight (male C57BL/6 mice; HFD-F diet for 8 weeks): almost completely reversed the disease; AUC of OGTT (male C57BL/6 mice; HFD-F diet, after eight weeks): reduces the AUC of OGTT; ALT levels (male C57BL/6 mice; plasma, HFD-F diet): statistically reduces; AST levels (male C57BL/6 mice; plasma, HFD-F diet): statistically reduces; LDL levels (male C57BL/6 mice; plasma, HFD-F diet): statistically reduces; aqueous solubility (Aqueous solubility): 66 µM (≈ 23.5 µg/mL); IC50 (CysLT1R): 5.67 µM; CLint S9 fraction (S9 fraction): 6 |
| OCc1cccc(-c2ccc(OCc3ccc4ccccc4n3)cc2)c1 [CHIN118] |  |  |  | CysLTR1 (% of inhibition compared to the compound MK571) (CysLT1R; [3]): 59% |
| COC(=O)c1ccc(-c2ccc(OCc3ccc4ccccc4n3)cc2)cc1 [CHIN119, Methyl 4′-(quinolin-2-ylmethoxy)-[1,1′-biphenyl]-4-carboxylate] | 13.5 | 6.83 | 13 |  |
| O=C(O)c1ccc(-c2ccc(OCc3ccc4ccccc4n3)cc2)cc1 [CHIN120, 4′-(quinolin-2-ylmethoxy)-[1,1′-biphenyl]-4-carboxylic Acid] | 36.74 | 12.76 | 43 |  |
| OCc1cccc(-c2ccc(OCc3ccc4ccccc4n3)cc2)c1 [CHIN121, (4′-(quinolin-2-ylmethoxy)-[1,1′-biphenyl]-3-yl)methanol] | 64.9 | 8.22 |  |  |
